One assay concerns U87MG tumour cells. The experiment in a line: Test of in vitro proliferation of U87MG tumour cells. Type of assay: cell-based. The settings on record: Homo sapiens, U-87 MG, 72 h, U87MG cells, 72 hours; read-out: U87 Cell Proliferation IC50. How it is done:
Model 4: Test of in vitro Proliferation of U87MG Tumour Cells.
The cell growth is determined with the reagent CellTiter 96 AQueous One Solution Cell Proliferation Assay from Promega (Cat. No. G3581).

The target in the next assay is PI3Kα (p110α/p85α) (Homo sapiens (Human), UniProt P42336). Briefly: PI3Kα enzymatic test by measuring the consumption of ATP. Type of assay: biochemical. The method, boiled down:
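ATP consumption read out by KinaseGlo luminescence after a 90 min reaction of 1.7 μg/ml PI3Kα (p110α/p85α) with 2 μM ATP and 50 μM PIP2, buffered at pH 7.5 (Tris, 10 mM MgCl2, 1 mM EGTA, 0.03% Chaps, 1 mM DTT). Threefold dilution series over ≥10 000-fold range yield IC50.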

The test system of the next assay is Akt-pS473 in U87MG cells. The settings on record: Homo sapiens, U-87 MG, read-out: U87 Akt-pS473 % Inhibition or IC50, nM (IC50), U87MG cells.
Assay [1] has as its target mTOR (human recombinant aa mTOR 1360-2549) (Homo sapiens (Human), UniProt P42345). Briefly: mTOR enzymatic test by TR-FRET (phosphorylation of GFP-4EBP1). It is filed as biochemical. The method, boiled down:
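After a 30 min room-temperature kinase reaction, EDTA (10 mM final) and Tb-labelled phospho-Thr46 antibody (2 nM final) were added and incubated 60 min. Energy transfer from Tb to phosphorylated GFP-4EBP1 was read at 340 nm excitation, emissions 490/520 nm. Values derive from the 520/490 fluorescence ratio.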

Bounds are passed on as bounds.

Chain of PI3Kα (p110α/p85α) (P42336 whole entry): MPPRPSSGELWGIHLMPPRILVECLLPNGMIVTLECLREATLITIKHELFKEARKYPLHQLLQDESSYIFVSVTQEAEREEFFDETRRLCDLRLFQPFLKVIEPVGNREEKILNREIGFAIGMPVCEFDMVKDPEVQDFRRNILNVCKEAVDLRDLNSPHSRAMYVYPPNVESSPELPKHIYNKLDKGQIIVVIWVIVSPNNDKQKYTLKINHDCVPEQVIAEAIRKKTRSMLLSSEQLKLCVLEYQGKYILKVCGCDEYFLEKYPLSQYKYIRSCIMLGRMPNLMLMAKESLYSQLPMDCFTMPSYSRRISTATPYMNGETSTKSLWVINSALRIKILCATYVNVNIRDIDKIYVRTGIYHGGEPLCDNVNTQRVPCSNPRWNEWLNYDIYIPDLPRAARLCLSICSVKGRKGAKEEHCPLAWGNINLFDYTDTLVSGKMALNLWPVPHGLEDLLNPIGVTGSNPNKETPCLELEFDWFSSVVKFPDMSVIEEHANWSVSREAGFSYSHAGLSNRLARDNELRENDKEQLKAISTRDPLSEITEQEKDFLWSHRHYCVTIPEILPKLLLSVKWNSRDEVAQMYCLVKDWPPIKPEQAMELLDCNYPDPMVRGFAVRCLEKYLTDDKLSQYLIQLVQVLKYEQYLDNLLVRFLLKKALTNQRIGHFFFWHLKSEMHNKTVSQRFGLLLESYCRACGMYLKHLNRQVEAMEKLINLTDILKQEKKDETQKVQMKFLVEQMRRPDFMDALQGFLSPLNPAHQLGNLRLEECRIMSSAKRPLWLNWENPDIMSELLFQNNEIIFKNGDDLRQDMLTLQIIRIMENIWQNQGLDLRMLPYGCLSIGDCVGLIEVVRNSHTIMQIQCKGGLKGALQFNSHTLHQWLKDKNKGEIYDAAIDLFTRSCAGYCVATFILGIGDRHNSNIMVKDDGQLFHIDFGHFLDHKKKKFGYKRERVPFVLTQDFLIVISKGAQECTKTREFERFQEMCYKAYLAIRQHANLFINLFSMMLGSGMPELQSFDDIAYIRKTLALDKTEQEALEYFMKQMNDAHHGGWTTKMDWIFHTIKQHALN
Chain of PI3Kα (p110α/p85α) (P27986 whole entry partner): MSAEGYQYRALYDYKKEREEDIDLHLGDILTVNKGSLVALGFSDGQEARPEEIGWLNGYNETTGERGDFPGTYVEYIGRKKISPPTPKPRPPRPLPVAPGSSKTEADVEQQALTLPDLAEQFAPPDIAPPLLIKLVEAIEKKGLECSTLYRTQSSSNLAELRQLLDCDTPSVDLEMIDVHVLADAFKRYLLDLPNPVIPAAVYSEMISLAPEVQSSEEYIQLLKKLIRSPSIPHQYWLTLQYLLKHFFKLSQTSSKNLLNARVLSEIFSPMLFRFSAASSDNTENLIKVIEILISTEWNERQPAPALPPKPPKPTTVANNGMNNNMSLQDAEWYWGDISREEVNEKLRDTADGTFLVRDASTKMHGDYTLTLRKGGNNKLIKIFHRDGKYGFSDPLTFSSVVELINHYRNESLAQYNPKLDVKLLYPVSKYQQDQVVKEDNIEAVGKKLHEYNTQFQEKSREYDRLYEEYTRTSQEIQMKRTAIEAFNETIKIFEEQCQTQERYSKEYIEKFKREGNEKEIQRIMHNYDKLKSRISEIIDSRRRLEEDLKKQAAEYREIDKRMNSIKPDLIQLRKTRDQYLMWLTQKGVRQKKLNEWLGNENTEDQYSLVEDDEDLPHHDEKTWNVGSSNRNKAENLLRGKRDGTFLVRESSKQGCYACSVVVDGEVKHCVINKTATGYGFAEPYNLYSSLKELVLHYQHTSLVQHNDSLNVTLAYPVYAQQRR
Chain of mTOR (human recombinant aa mTOR 1360-2549) (P42345 1360-2549): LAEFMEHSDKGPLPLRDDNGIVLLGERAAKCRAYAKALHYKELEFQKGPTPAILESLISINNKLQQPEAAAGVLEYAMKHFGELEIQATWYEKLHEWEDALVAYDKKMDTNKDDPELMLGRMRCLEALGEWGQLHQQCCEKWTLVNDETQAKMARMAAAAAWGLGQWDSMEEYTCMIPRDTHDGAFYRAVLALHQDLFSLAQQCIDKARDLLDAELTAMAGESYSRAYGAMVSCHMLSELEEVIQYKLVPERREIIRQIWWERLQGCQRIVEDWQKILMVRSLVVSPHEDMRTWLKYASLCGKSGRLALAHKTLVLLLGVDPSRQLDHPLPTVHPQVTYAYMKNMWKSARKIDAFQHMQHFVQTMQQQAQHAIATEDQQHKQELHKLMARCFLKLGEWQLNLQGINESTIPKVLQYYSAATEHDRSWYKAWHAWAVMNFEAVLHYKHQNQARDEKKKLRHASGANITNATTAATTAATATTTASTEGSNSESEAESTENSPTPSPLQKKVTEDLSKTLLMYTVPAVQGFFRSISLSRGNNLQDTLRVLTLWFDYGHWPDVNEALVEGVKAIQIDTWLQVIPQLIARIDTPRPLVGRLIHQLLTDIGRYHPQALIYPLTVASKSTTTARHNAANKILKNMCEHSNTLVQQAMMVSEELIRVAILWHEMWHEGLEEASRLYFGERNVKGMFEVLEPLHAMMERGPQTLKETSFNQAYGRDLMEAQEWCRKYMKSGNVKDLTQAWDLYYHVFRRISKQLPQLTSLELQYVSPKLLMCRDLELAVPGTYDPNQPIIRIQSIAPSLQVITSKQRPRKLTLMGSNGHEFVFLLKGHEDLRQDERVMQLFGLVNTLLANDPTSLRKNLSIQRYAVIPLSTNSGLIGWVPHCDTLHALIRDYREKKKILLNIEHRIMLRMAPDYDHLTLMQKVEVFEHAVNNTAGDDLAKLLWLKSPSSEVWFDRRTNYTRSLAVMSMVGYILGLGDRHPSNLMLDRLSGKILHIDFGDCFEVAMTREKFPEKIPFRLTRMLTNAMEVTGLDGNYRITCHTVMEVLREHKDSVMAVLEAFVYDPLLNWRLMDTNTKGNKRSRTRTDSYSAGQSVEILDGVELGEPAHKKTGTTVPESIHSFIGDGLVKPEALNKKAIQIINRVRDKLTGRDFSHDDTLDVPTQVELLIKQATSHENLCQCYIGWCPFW

Consider `CCN1CC(C)(C)Oc2nc(N3CCOC[C@@H]3C)nc(-c3ccc(NC(=O)Nc4cc(C)nc(C)n4)cc3)c2C1=O` [Example 91, 1-(2,6-Dimethylpyrimidin-4-yl)-3-{4-[6-ethyl-8,8-dimethyl-2-((S)-3-methylmorpholin-4-yl)-5-oxo-5,6,7,8-tetrahydro-9-oxa-1,3,6-triazabenzocyclohepten-4-yl]phenyl}urea], for which the IC50 is 410 nM in the assay with U87MG tumour cells, 47 nM in the assay with Akt-pS473 in U87MG cells and 53 nM in assay [1]. For the same compound, the “PI3Ka IC50” value on PI3Kα (p110α/p85α) was found to be 4640 nM.

`CCN1CC(C)(C)Oc2nc(N3C4CCC3COC4)nc(-c3ccc(NC(=O)Nc4ccncn4)cc3)c2C1=O` [Example 92, 1-{4-[6-Ethyl-8,8-dimethyl-2-(3-oxa-8-azabicyclo[3.2.1]oct-8-yl)-5-oxo-5,6,7,8-tetrahydro-9-oxa-1,3,6-triazabenzocyclohepten-4-yl]phenyl}-3-pyrimidin-4-ylurea]: the values for the IC50 (with U87MG tumour cells; with Akt-pS473 in U87MG cells; in assay [1]) were 99 nM, 12 nM and 40 nM, respectively. For the same compound, the “PI3Ka IC50” value at PI3Kα (p110α/p85α) is listed as above 10000 nM.

For `CCN1CC(C)(C)Oc2nc(N3C4CCC3COC4)nc(-c3ccc(NC(=O)Nc4cc(C)nc(C)n4)cc3)c2C1=O` [Example 93, 1-(2,6-Dimethylpyrimidin-4-yl)-3-{4-[6-ethyl-8,8-dimethyl-2-(3-oxa-8-azabicyclo[3.2.1]oct-8-yl)-5-oxo-5,6,7,8-tetrahydro-9-oxa-1,3,6-triazabenzocyclohepten-4-yl]phenyl}urea], the IC50 was found to be 410 nM with U87MG tumour cells, 65 nM with Akt-pS473 in U87MG cells and 72 nM in assay [1]. Further, the “PI3Ka IC50” value at PI3Kα (p110α/p85α) is given as above 10000 nM.

For `CCNC(=O)Nc1ccc(-c2nc(N3CCOCC3)nc3c2C(=O)N(CC)CC(C)(C)O3)cc1` [Example 96, 1-Ethyl-3-[4-(6-ethyl-8,8-dimethyl-2-morpholin-4-yl-5-oxo-5,6,7,8-tetrahydro-9-oxa-1,3,6-triazabenzocyclohepten-4-yl)phenyl]urea], the IC50 amounted to 1470 nM in the assay on U87MG tumour cells, 107 nM in the assay with Akt-pS473 in U87MG cells and 72 nM in assay [1]. The “PI3Ka IC50” value on PI3Kα (p110α/p85α) was 1444 nM.

With `CCNC(=O)Nc1ccc(-c2nc(N3CCOC[C@@H]3C)nc3c2C(=O)N(CC)CC(C)(C)O3)cc1` [Example 98, 1-Ethyl-3-{4-[6-ethyl-8,8-dimethyl-2-((S)-3-methylmorpholin-4-yl)-5-oxo-5,6,7,8-tetrahydro-9-oxa-1,3,6-triazabenzocyclohepten-4-yl]phenyl}urea], the IC50 in the assay on U87MG tumour cells came to 184 nM; in the assay with Akt-pS473 in U87MG cells it was 20 nM; in assay [1] it was 26 nM. The “PI3Ka IC50” value on PI3Kα (p110α/p85α) was 1138 nM.

On to `CCNC(=O)Nc1ccc(-c2nc(N3CC4CCC(C3)O4)nc3c2C(=O)N(CC)CC(C)(C)O3)cc1` [Example 99, 1-Ethyl-3-{4-[6-ethyl-8,8-dimethyl-2-(8-oxa-3-azabicyclo[3.2.1]oct-3-yl)-5-oxo-5,6,7,8-tetrahydro-9-oxa-1,3,6-triazabenzocyclohepten-4-yl]phenyl}urea], for which the IC50 in the assay on U87MG tumour cells was 239 nM; with Akt-pS473 in U87MG cells it was 40 nM; in assay [1], 31 nM. In addition, the “PI3Ka IC50” value on PI3Kα (p110α/p85α) was above 10000 nM.

Take `CCN1CC(C)(C)Oc2nc(N3CCOCC3)nc(-c3ccc(NC(=O)OC)cc3)c2C1=O` [Example 103, [4-(6-Ethyl-8,8-dimethyl-2-morpholin-4-yl-5-oxo-5,6,7,8-tetrahydro-9-oxa-1,3,6-triazabenzocyclohepten-4-yl)phenyl]carbamic acid methyl ester]: the IC50 in the assay on U87MG tumour cells was 3510 nM; in the assay with Akt-pS473 in U87MG cells, 425 nM; in assay [1] it was 194 nM. Further, at PI3Kα (p110α/p85α), the “PI3Ka IC50” value was 6590 nM.

With `CCN1CC(C)(C)Oc2nc(N3CC4CCC(C3)O4)nc(-c3ccc(NC(=O)OC)cc3)c2C1=O` [Example 105, {4-[6-Ethyl-8,8-dimethyl-2-(8-oxa-3-azabicyclo[3.2.1]oct-3-yl)-5-oxo-5,6,7,8-tetrahydro-9-oxa-1,3,6-triazabenzocyclohepten-4-yl]phenyl}carbamic acid methyl ester], the IC50 came out at 2690 nM with U87MG tumour cells, 360 nM in the assay with Akt-pS473 in U87MG cells and 180 nM in assay [1]. Further, at PI3Kα (p110α/p85α), the “PI3Ka IC50” value is given as above 10000 nM.

As for `CCOC(=O)Nc1ccc(-c2nc(N3CC4CCC(C3)O4)nc3c2C(=O)N(CC)CC(C)(C)O3)cc1` [Example 106, {4-[6-Ethyl-8,8-dimethyl-2-(8-oxa-3-azabicyclo[3.2.1]oct-3-yl)-5-oxo-5,6,7,8-tetrahydro-9-oxa-1,3,6-triazabenzocyclohepten-4-yl]phenyl}carbamic acid ethyl ester], the results for the IC50 (in the assay on U87MG tumour cells; in the assay on Akt-pS473 in U87MG cells; in assay [1]) were 6560 nM, 767 nM and 442 nM, respectively. The “PI3Ka IC50” value at PI3Kα (p110α/p85α) is given as above 10000 nM.

Take `CCNC(=O)Nc1ccc(-c2nc(N3CC4CCC(C3)O4)nc3c2C(=O)N(CC)CC(C)(C)O3)cc1F` [Example 110, 1-Ethyl-3-{4-[6-ethyl-8,8-dimethyl-2-(8-oxa-3-azabicyclo[3.2.1]oct-3-yl)-5-oxo-5,6,7,8-tetrahydro-9-oxa-1,3,6-triazabenzocyclohepten-4-yl]-2-fluorophenyl}urea]: the IC50 with U87MG tumour cells is 506 nM; in the assay on Akt-pS473 in U87MG cells, 89 nM; in assay [1] it was 45 nM. Further, the “PI3Ka IC50” value on PI3Kα (p110α/p85α) is above 10000 nM.

As for `CCN1CC(C)(C)Oc2nc(N3CC4CCC(C3)O4)nc(-c3ccc(NC(=O)Nc4cccnc4)cc3)c2C1=O` [Example 112, 1-{4-[6-Ethyl-8,8-dimethyl-2-(8-oxa-3-azabicyclo[3.2.1]oct-3-yl)-5-oxo-5,6,7,8-tetrahydro-9-oxa-1,3,6-triazabenzocyclohepten-4-yl]phenyl}-3-pyridin-3-ylurea], the results for the IC50 (with U87MG tumour cells; in the assay with Akt-pS473 in U87MG cells; in assay [1]) were 154 nM, 24 nM and 20 nM, respectively. The “PI3Ka IC50” value on PI3Kα (p110α/p85α) is listed as 2660 nM.

With `CCN1CC(C)(C)Oc2nc(N3CC4CCC(C3)O4)nc(-c3ccc(NC(=O)Nc4cc(C)on4)cc3)c2C1=O` [Example 116, 1-{4-[6-Ethyl-8,8-dimethyl-2-(8-oxa-3-azabicyclo[3.2.1]oct-3-yl)-5-oxo-5,6,7,8-tetrahydro-9-oxa-1,3,6-triazabenzocyclohepten-4-yl]phenyl}-3-(5-methylisoxazol-3-yl)urea], the results for the IC50 (with U87MG tumour cells; in the assay on Akt-pS473 in U87MG cells; in assay [1]) were 282 nM, 98 nM and 42 nM, respectively. Besides, the “PI3Ka IC50” value on PI3Kα (p110α/p85α) was found to be 4310 nM.

Regarding `CCN1CC(C)(C)Oc2nc(N3CC4CCC(C3)O4)nc(-c3ccc(NC(=O)NCCO)cc3)c2C1=O` [Example 117, 1-{4-[6-Ethyl-8,8-dimethyl-2-(8-oxa-3-azabicyclo[3.2.1]oct-3-yl)-5-oxo-5,6,7,8-tetrahydro-9-oxa-1,3,6-triazabenzocyclohepten-4-yl]phenyl}-3-(2-hydroxyethyl)urea], the IC50 with U87MG tumour cells stood at 1700 nM; with Akt-pS473 in U87MG cells, 812 nM; in assay [1], 25 nM. Further, the “PI3Ka IC50” value at PI3Kα (p110α/p85α) was 7410 nM.

`CCN1CC(C)(C)Oc2nc(N3CC4CCC(C3)O4)nc(-c3ccc(Nc4nc5ccccc5[nH]4)cc3)c2C1=O` [Example 118, 4-[4-(1H-Benzimidazol-2-ylamino)phenyl]-6-ethyl-8,8-dimethyl-2-(8-oxa-3-azabicyclo[3.2.1]oct-3-yl)-7,8-dihydro-6H-9-oxa-1,3,6-triazabenzocyclohepten-5-one]: the IC50 in the assay with U87MG tumour cells was found to be 233 nM; in the assay with Akt-pS473 in U87MG cells, 32 nM; in assay [1], 58 nM. For the same compound, the “PI3Ka IC50” value at PI3Kα (p110α/p85α) was determined as 5040 nM.

With `CCN1CC(C)(C)Oc2nc(N3CC4CCC(C3)O4)nc(-c3ccc(NC(=O)NCCCO)cc3)c2C1=O` [Example 119, 1-{4-[6-Ethyl-8,8-dimethyl-2-(8-oxa-3-azabicyclo[3.2.1]oct-3-yl)-5-oxo-5,6,7,8-tetrahydro-9-oxa-1,3,6-triazabenzocyclohepten-4-yl]phenyl}-3-(3-hydroxypropyl)urea], the IC50 in the assay with U87MG tumour cells was above 3000 nM; in the assay with Akt-pS473 in U87MG cells it was 1060 nM; in assay [1] it was 104 nM. Moreover, on PI3Kα (p110α/p85α), the “PI3Ka IC50” value is listed as above 10000 nM.

Take `CCNC(=O)Nc1ccc(-c2nc(N3CC4CCC(C3)O4)nc3c2C(=O)N(CCC(=O)OC(C)(C)C)CC(C)(C)O3)cc1` [Example 120, 3-[4-[4-(3-Ethylureido)phenyl]-8,8-dimethyl-2-(8-oxa-3-azabicyclo[3.2.1]oct-3-yl)-5-oxo-7,8-dihydro-5H-9-oxa-1,3,6-triazabenzocyclohepten-6-yl]propionic acid tert-butyl ester]: the values for the IC50 (in the assay with U87MG tumour cells; in the assay on Akt-pS473 in U87MG cells; in assay [1]) were 2260 nM, 1180 nM and 351 nM, respectively. Moreover, the “PI3Ka IC50” value on PI3Kα (p110α/p85α) is above 10000 nM.

Regarding `CCN1CC(C)(C)Oc2nc(N3CC4CCC(C3)O4)nc(-c3ccc(Nc4nnc(C)s4)cc3)c2C1=O` [Example 121, 6-Ethyl-8,8-dimethyl-4-[4-(5-methyl-[1,3,4]thiadiazol-2-ylamino)phenyl]-2-(8-oxa-3-azabicyclo[3.2.1]oct-3-yl)-7,8-dihydro-6H-9-oxa-1,3,6-triazabenzocyclohepten-5-one], the IC50 in the assay with U87MG tumour cells amounted to 802 nM; in the assay with Akt-pS473 in U87MG cells, 130 nM; in assay [1], 66 nM. In addition, the “PI3Ka IC50” value at PI3Kα (p110α/p85α) was above 10000 nM.

For the origin of these results see patent US9120812B2, “Pyrimidooxazocine derivatives as mTOR-inhibitors” (SANOFI, priority 2012, dated 2015).
